Results published in patent publication US9290691B2, “Organic el material-containing solution, method for forming organic el thin film, organic el device comprising organic el thin film, and method for manufacturing organic el display panel” (IDEMITSU KOSAN CO., LTD., priority 2007, dated 2016).

Experiment: Solubility Evaluation 1: anthracene compounds in various solvents, visual check
Assay type: physicochemical
Set-up: key to Solubility in Cyclohexanone / Solubility in Toluene / Solubility in Xylene / Solubility in Tetralin / Solubility in Dodecylbenzene / Solubility in Anisole / Solubility in Dioxane / Solubility in Butyl Acetate / Solubility in Methylethylketone / Solubility in N-methylpyrolidone: A: it was confirmed that the compounds were dissolved in the dropped solvents; C: the compounds were not completely dissolved and undissolved residues remained
Conditions: 30 mg compound, 1 g solvent, visual check
Protocol: (§1) 30 mg of each of anthracene compounds 1 to 14 represented by the following formulae was put into a sample bottle, and 1 g of each of various solvents was dropped into the bottle with agitation. By visual check, a case where it was confirmed that the compounds were dissolved in the dropped solvents is marked as A and a case where the compounds were not completely dissolved and undissolved residues remained is marked as C.

Structure (SMILES) | Solubility in Anisole | Solubility in Butyl Acetate | Solubility in Cyclohexanone | Solubility in Dioxane | Solubility in Dodecylbenzene | Solubility in Methylethylketone | Solubility in N-methylpyrolidone | Solubility in Tetralin | Solubility in Toluene | Solubility in Xylene
c1ccc(-c2ccc(-c3c4ccccc4c(-c4ccc(-c5ccccc5)cc4)c4ccccc34)cc2)cc1 [Compound 13] | C | C | C | C | C | C | C | C | C | C
c1ccc(-c2ccc3cc(-c4cccc(-c5c6ccccc6c(-c6ccc7ccccc7c6)c6ccccc56)c4)ccc3c2)cc1 [Compound 8] | C | C | A | C | C | C | A | C | C | C
c1ccc(-c2ccc3ccc(-c4c5ccccc5c(-c5cccc(-c6ccc7ccccc7c6)c5)c5ccccc45)cc3c2)cc1 [Compound 5] | C | C | A | C | C | C | A | C | C | C
c1cc(-c2ccc3ccccc3c2)cc(-c2c3ccccc3c(-c3cccc4ccccc34)c3ccccc23)c1 [Compound 6] | C | C | A | C | C | C | A | C | C | C
c1ccc(-c2ccc3cc(-c4cccc(-c5c6ccccc6c(-c6ccc(-c7cccc8ccccc78)cc6)c6ccccc56)c4)ccc3c2)cc1 [Compound 3] | C | C | A | A | C | C | A | C | A | A
c1ccc2cc(-c3c4ccccc4c(-c4ccc(-c5cccc6ccccc56)cc4)c4ccccc34)ccc2c1 [Compound 1] | C | C | A | A | C | C | A | C | A | A
c1ccc2cc(-c3ccc(-c4ccc(-c5c6ccccc6c(-c6ccc7ccccc7c6)c6ccccc56)cc4)c4ccccc34)ccc2c1 [Compound 9] | C | C | A | C | C | C | A | C | C | C
c1ccc(-c2c3ccccc3c(-c3cccc(-c4cccc(-c5c6ccccc6c(-c6ccccc6)c6ccccc56)c4)c3)c3ccccc23)cc1 [Compound 12] | C | C | C | C | C | C | C | C | C | C
c1ccc2cc(-c3ccc(-c4c5ccccc5c(-c5ccc(-c6cccc7ccccc67)cc5)c5ccccc45)cc3)ccc2c1 [Compound 7] | C | C | A | A | C | C | A | C | A | A
c1cc(-c2ccc3ccccc3c2)cc(-c2c3ccccc3c(-c3ccc4cc(-c5ccc6ccccc6c5)ccc4c3)c3ccccc23)c1 [Compound 4] | C | C | A | C | C | C | A | C | C | C
c1ccc(-c2cc(-c3ccc4ccccc4c3)cc(-c3c4ccccc4c(-c4ccc5ccccc5c4)c4ccccc34)c2)cc1 [Compound 2] | C | C | A | A | C | C | A | C | A | A
c1cc(-c2ccc3ccccc3c2)cc(-c2c3ccccc3c(-c3ccc4ccccc4c3)c3ccccc23)c1 [Compound 10] | C | C | A | C | C | C | A | C | A | A
c1ccc(-c2ccc(-c3ccccc3-c3c4ccccc4c(-c4c5ccccc5c(-c5ccccc5-c5ccc(-c6ccccc6)cc5)c5ccccc45)c4ccccc34)cc2)cc1 [Compound 14] | C | C | A | A | C | C | A | C | A | C
c1ccc2cc(-c3c4ccccc4c(-c4ccc5ccccc5c4)c4ccccc34)ccc2c1 [Compound 11] | C | C | C | C | C | C | C | C | C | C

Same assay, conditions: cyclohexanone

Structure (SMILES) | dissolution in cyclohexanone (in words)
c1cc(-c2ccc3ccccc3c2)cc(-c2c3ccccc3c(-c3ccc4cc(-c5ccc6ccccc6c5)ccc4c3)c3ccccc23)c1 [Compound 4] | dissolved

Same assay, conditions: toluene

Structure (SMILES) | dissolution in toluene (in words)
c1cc(-c2ccc3ccccc3c2)cc(-c2c3ccccc3c(-c3ccc4cc(-c5ccc6ccccc6c5)ccc4c3)c3ccccc23)c1 [Compound 4] | not dissolved

Experiment: Solubility Evaluation 2: naphthacene compounds in various solvents, visual check
Assay type: physicochemical
Set-up: key: A: it was confirmed that the compounds were dissolved in the dropped solvents; C: the compounds were not completely dissolved and undissolved residues remained
Conditions: 30 mg compound, 1 g solvent
Protocol: as §1
Next, naphthacene compounds 15 and 16 were used in place of the anthracene compounds, and the solubility was evaluated in the same manner as the above. Same as in Solubility Evaluation 1, by visual check, a case where it was confirmed that the compounds were dissolved in the dropped solvents is marked as A and a case where the compounds were not completely dissolved and undissolved residues remained is marked as C. Moreover, a case where precipitation was observed after several hours of dissolution is marked as B. Result of solubility evaluation will be shown in Table 3 below.

Structure (SMILES) | Solubility in Cycloheptanone | Solubility in Cyclohexanone | Solubility in N-methylpyrolidone | Solubility in Toluene | Solubility in Xylene
c1ccc(-c2cc(-c3ccccc3)c(-c3c4ccccc4c(-c4ccccc4)c4cc5ccccc5cc34)c(-c3ccccc3)c2)cc1 [Compound 16] | A | A | A | C | C

Experiment: Solvent solubility of naphthacene host compound
Assay type: physicochemical
Conditions: aromatic substituent bonded to naphthacene skeleton in para position; solvent not stated
From the text: For instance, when an aromatic group as a substituent is bonded to a naphthacene skeleton in para position, the solubility is lowered.

Structure (SMILES) | solubility
c1ccc(-c2ccc(-c3c4ccccc4c(-c4ccc(-c5ccccc5)cc4-c4ccccc4)c4cc5ccccc5cc34)c(-c3ccccc3)c2)cc1 | ≤ 0.1 mass %
